These results are taken from patent US8440708B2, “Triazole-substituted arylamides as P2X3 and P2X2/3 antagonists” (Roche Palo Alto LLC, priority 2007, dated 2013).

For test [1], the target named is T1, rat P2X3 receptor (Rattus norvegicus, UniProt P49654).
T1 construct: expressed in transfected cells; host or cells: CHO-K1
T1 sequence (P49654 1-397): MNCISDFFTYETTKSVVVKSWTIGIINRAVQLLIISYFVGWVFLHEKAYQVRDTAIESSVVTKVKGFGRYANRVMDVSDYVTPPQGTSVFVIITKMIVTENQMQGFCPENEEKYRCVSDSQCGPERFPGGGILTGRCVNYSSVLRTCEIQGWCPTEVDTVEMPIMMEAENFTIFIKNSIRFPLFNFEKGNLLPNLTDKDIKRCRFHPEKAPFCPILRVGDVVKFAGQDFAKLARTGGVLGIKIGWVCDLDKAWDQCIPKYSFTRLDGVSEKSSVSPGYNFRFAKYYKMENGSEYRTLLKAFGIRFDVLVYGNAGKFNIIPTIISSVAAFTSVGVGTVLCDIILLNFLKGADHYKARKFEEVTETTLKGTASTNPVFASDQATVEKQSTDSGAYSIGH
The test can be described thus: P2X3/P2X2/3 FLIPR (Fluorometric Imaging Plate Reader) Assay, P2X3. The test is classed as cell-based. Conditions: CHO-K1 cells transfected with rat P2X3; agonist α,β-meATP 1 μM; Table 1; read-out: P2X3 pKi (converted). Here is the method:
(§1) P2X3/P2X2/3 FLIPR (Fluorometric Imaging Plate Reader) Assay
(§2) CHO-K1 cells were transfected with cloned rat P2X3 or human P2X2/3 receptor subunits and passaged in flasks. 18-24 hours before the FLIPR experiment, cells were released from their flasks, centrifuged, and resuspended in nutrient medium at 2.5×10^5 cells/ml. The cells were aliquoted into black-walled 96-well plates at a density of 50,000 cells/well and incubated overnight in 5% CO2 at 37° C. On the day of the experiment, cells were washed in FLIPR buffer (calcium- and magnesium-free Hank's balanced salt solution, 10 mM HEPES, 2 mM CaCl2, 2.5 mM probenecid; FB). Each well received 100 μl FB and 100 μl of the fluorescent dye Fluo-3 AM [2 μM final conc.]. After a 1 hour dye loading incubation at 37° C., the cells were washed 4 times with FB, and a final 75 μl/well FB was left in each well.
(§3) Test compounds (dissolved in DMSO at 10 mM and serially diluted with FB) or vehicle were added to each well (25 μl of a 4× solution) and allowed to equilibrate for 20 minutes at room temperature. The plates were then placed in the FLIPR and a baseline fluorescence measurement (excitation at 488 nm and emission at 510-570 nm) was obtained for 10 seconds before a 100 μl/well agonist or vehicle addition. The agonist was a 2× solution of α,β-meATP producing a final concentration of 1 μM (P2X3) or 5 μM (P2X2/3). Fluorescence was measured for an additional 2 minutes at 1 second intervals after agonist addition. A final addition of ionomycin (5 μM, final concentration) was made to each well of the FLIPR test plate to establish cell viability and maximum fluorescence of dye-bound cytosolic calcium. Peak fluorescence in response to the addition of α,β-meATP (in the absence and presence of test compounds) was measured and inhibition curves generated using nonlinear regression. PPADS, a standard P2X antagonist, was used as a positive control.

Test [2] deals with T2, human P2X2/3 receptor (Homo sapiens, UniProt P56373+Q9UBL9).
T2 construct: expressed in transfected cells; host or cells: CHO-K1
T2 sequence (Q9UBL9 1-471): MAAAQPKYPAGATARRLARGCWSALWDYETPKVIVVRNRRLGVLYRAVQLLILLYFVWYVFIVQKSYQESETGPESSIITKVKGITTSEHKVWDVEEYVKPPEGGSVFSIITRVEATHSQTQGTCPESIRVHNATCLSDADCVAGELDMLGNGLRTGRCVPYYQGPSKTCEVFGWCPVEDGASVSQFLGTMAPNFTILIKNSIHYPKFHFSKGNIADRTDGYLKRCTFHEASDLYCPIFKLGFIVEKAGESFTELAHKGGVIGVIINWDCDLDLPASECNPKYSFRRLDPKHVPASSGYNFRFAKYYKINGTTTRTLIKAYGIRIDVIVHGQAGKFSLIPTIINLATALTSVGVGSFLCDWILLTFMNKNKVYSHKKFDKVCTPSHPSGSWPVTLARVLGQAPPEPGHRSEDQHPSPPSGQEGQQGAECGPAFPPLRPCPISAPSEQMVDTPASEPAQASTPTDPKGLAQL
T2 sequence (P56373 1-397): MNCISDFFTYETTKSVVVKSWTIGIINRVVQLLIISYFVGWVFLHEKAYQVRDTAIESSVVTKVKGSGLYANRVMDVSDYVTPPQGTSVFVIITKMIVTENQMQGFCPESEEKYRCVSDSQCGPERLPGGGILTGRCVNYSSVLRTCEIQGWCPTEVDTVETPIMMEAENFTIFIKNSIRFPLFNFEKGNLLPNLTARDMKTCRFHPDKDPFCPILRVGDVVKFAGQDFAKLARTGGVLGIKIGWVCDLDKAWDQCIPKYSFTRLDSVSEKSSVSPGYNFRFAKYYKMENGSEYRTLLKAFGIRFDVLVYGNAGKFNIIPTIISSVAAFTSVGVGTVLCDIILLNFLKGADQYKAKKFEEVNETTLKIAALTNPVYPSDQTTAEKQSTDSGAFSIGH
The test can be described thus: P2X3/P2X2/3 FLIPR (Fluorometric Imaging Plate Reader) Assay, P2X2/3. The test is classed as cell-based. The settings on record: CHO-K1 cells transfected with human P2X2/3; agonist α,β-meATP 5 μM; Table 1; read-out: P2X2/3 pKi (converted). Here is the method: as §1, §2, §3

In the case of `Cc1ccc(-c2cc(C(=O)NC(C)c3cnccn3)cc(-n3nncc3C(C)C)c2)c(F)c1` (stereo not shown) [Compound 25, 2′-Fluoro-5-(5-isopropyl-[1,2,3]triazol-1-yl)-4′-methyl-biphenyl-3-carboxylic acid (1-pyrazin-2-yl-ethyl)-amide], the Ki was 12 nM in test [1] and 72.4 nM in test [2].
`CCCc1ncnn1-c1cc(C(=O)NCc2cnc(C)cn2)cc(-c2ccc(C)cn2)c1` [Compound 116, N-(5-Methyl-pyrazin-2-ylmethyl)-3-(5-methyl-pyridin-2-yl)-5-(5-propyl-[1,2,4]triazol-1-yl)-benzamide]: the Ki in test [1] was 2.51 nM; in test [2], 85.1 nM.
Regarding `Cc1ccc(-c2cc(C(=O)NC(C)c3cnccn3)cc(-n3ncnc3C(C)O)c2)cc1` (stereo not shown) [Compound 49, 5-[5-(1-Hydroxy-ethyl)-[1,2,4]triazol-1-yl]-4′-methyl-biphenyl-3-carboxylic acid (1-pyrazin-2-yl-ethyl)-amide], the values for the Ki in test [1] and in test [2] were 5.13 nM and 282 nM, respectively.
For `CCn1cc(-c2cc(C(=O)N[C@@H](C)CO)cc(-c3ccc(C)cc3)c2)nn1` [Compound 40, 5-(1-Ethyl-1H-[1,2,3]triazol-4-yl)-4′-methyl-biphenyl-3-carboxylic acid ((S)-2-hydroxy-1-methyl-ethyl)-amide], the Ki in test [1] and in test [2] was 10000 nM throughout.
For the compound `Cc1ccc(-c2cc(C(=O)NC3CC3)cc(-n3ncnc3C(F)(F)F)c2)cc1` [Compound 64, 4′-Methyl-5-(5-trifluoromethyl-[1,2,4]triazol-1-yl)-biphenyl-3-carboxylic acid cyclopropylamide], the Ki was 4.57 nM in test [1] and 309 nM in test [2].
As for `Cc1ccc(-c2cc(C(=O)NCc3cnc(C)cn3)cc(-c3ncn(C(C)C)n3)c2)cc1` [Compound 117, 5-(1-Isopropyl-1H-[1,2,4]triazol-3-yl)-4′-methyl-biphenyl-3-carboxylic acid (5-methyl-pyrazin-2-ylmethyl)-amide], the Ki in test [1] was 11.5 nM; in test [2], 398 nM.
With `Cc1cnc(CNC(=O)c2cc(-c3ccc(Cl)cn3)cc(-n3ncnc3C(C)C)c2)cn1` [Compound 121, 3-(5-Chloro-pyridin-2-yl)-5-(5-isopropyl-[1,2,4]triazol-1-yl)-N-(5-methyl-pyrazin-2-ylmethyl)-benzamide], the values for the Ki in test [1] and in test [2] were 5.89 nM and 107 nM, respectively.
With `CCCc1ncnn1-c1cc(C(=O)NCc2cnc(C)cn2)cc(-c2ccc(Cl)cn2)c1` [Compound 109, 3-(5-Chloro-pyridin-2-yl)-N-(5-methyl-pyrazin-2-ylmethyl)-5-(5-propyl-[1,2,4]triazol-1-yl)-benzamide], the Ki in test [1] was 5.5 nM; in test [2], 372 nM.
Take `Cc1ccc(-c2cc(C(=O)NC3CC3)cc(-n3ncnc3CC(C)C)c2)nc1` [Compound 130, N-Cyclopropyl-3-(5-isobutyl-[1,2,4]triazol-1-yl)-5-(5-methyl-pyridin-2-yl)-benzamide]: the Ki in test [1] was 4.27 nM; in test [2], 182 nM.
Taken in the same sequence, the figures for `COC[C@@H](C)NC(=O)c1cc(-c2ccc(C)cc2)cc(-n2c(C)nnc2C(C)C)c1` [Compound 32, 5-(3-Isopropyl-5-methyl-[1,2,4]triazol-4-yl)-4′-methyl-biphenyl-3-carboxylic acid ((R)-2-methoxy-1-methyl-ethyl)-amide] were 427 nM and 10000 nM.
Consider `Cc1ccc(-c2cc(C(=O)NCc3cnc(C)cn3)cc(-n3ncnc3C)c2)nc1` [Compound 101, N-(5-Methyl-pyrazin-2-ylmethyl)-3-(5-methyl-pyridin-2-yl)-5-(5-methyl-[1,2,4]triazol-1-yl)-benzamide], for which the Ki in test [1] is 7.94 nM; in test [2] it was 1150 nM.
Take `COC(C)c1ncnn1-c1cc(C(=O)N[C@@H](C)CO)cc(-c2ccc(C)cc2)c1` (stereo partly drawn) [Compound 47, 5-[5-(1-Methoxy-ethyl)-[1,2,4]triazol-1-yl]-4′-methyl-biphenyl-3-carboxylic acid ((S)-2-hydroxy-1-methyl-ethyl)-amide]: the Ki is 4.68 nM in test [1] and 2040 nM in test [2].
As for `Cc1ccc(-c2cc(C(=O)N[C@@H](C)CO)cc(-n3nncc3C)c2)cc1` [Compound 13, 4′-Methyl-5-(5-methyl-[1,2,3]triazol-1-yl)-biphenyl-3-carboxylic acid ((S)-2-hydroxy-1-methyl-ethyl)-amide], the Ki in test [1] is 75.9 nM; in test [2], 8130 nM.
Consider `Cc1ccc(-c2cc(C(=O)NCc3cnc(C)cn3)cc(-n3ncnc3C3CC3)c2)nc1` [Compound 125, 3-(5-Cyclopropyl-[1,2,4]triazol-1-yl)-N-(5-methyl-pyrazin-2-ylmethyl)-5-(5-methyl-pyridin-2-yl)-benzamide], for which the values for the Ki in test [1] and in test [2] were 19.1 nM and 245 nM, respectively.
With `CC(NC(=O)c1cc(-c2ccc(Cl)cc2)cc(-n2cncn2)c1)c1cnccn1` (stereo not shown) [Compound 51, 4′-Chloro-5-[1,2,4]triazol-1-yl-biphenyl-3-carboxylic acid (1-pyrazin-2-yl-ethyl)-amide], the Ki in test [1] is 200 nM; in test [2] it was 2950 nM.
With `Cc1ccc(-c2cc(-n3ncnc3C(F)(F)F)cc(C(=O)NCc3ncc(C)cn3)c2F)nc1` [Compound 177, 2-Fluoro-3-(5-methyl-pyridin-2-yl)-N-(5-methyl-pyrimidin-2-ylmethyl)-5-(5-trifluoromethyl-[1,2,4]triazol-1-yl)-benzamide], the Ki in test [1] was 24 nM; in test [2], 151 nM.
Consider `Cc1ccc(-c2cc(-n3ncnc3C(F)(F)F)cc(C(=O)N[C@@H](C)CO)c2F)nc1` [Compound 167, 2-Fluoro-N-((S)-2-hydroxy-1-methyl-ethyl)-3-(5-methyl-pyridin-2-yl)-5-(5-trifluoromethyl-[1,2,4]triazol-1-yl)-benzamide], for which the Ki in test [1] is 2.51 nM; in test [2] it was 12 nM.
Take `C[C@@H](CO)NC(=O)c1cc(-c2ccc(Cl)cn2)cc(-n2ncnc2CF)c1` [Compound 93, 3-(5-Chloro-pyridin-2-yl)-5-(5-fluoromethyl-[1,2,4]triazol-1-yl)-N-((S)-2-hydroxy-1-methyl-ethyl)-benzamide]: the Ki was 575 nM in test [1] and 10000 nM in test [2].
Turning to `CCc1ncnn1-c1cc(C(=O)NC(C)c2cnccn2)cc(-c2ccc(C)cn2)c1` (stereo not shown) [Compound 128, 3-(5-Ethyl-[1,2,4]triazol-1-yl)-5-(5-methyl-pyridin-2-yl)-N-(1-pyrazin-2-yl-ethyl)-benzamide], the Ki in test [1] is 10.2 nM; in test [2] it was 257 nM.
Consider `Cc1ccc(-c2cc(C(=O)NC(C)CO)cc(-n3ncnc3C(C)C)c2)c(F)c1` (stereo not shown) [Compound 34, 2′-Fluoro-5-(5-isopropyl-[1,2,4]triazol-1-yl)-4′-methyl-biphenyl-3-carboxylic acid (2-hydroxy-1-methyl-ethyl)-amide], for which the Ki is 3.24 nM in test [1] and 427 nM in test [2].
